Biological target: T1, 5-HT2C receptor (Homo sapiens, UniProt P28335)
T1 construct: β-galactosidase enzyme-complementation fragment (ProLink-type donor); host or cells: U2OS
Assay: Functional activity: beta-arrestin2 recruitment to the 5-HT2C receptor in U2OS_HTR2C_β-Arrestin cells (DiscoverX)
Assay type: cell-based
Conditions: for EC50: U2OS_HTR2C_β-Arrestin cells, 1.5 h incubation, chemiluminescent β-galactosidase complementation readout, read-out: Potency (EC50) in functional assay; for Emax: relative efficacy: response as percentage of response to 10 μM 5-HT or maximal effect induced by 5-HT (defined as 100%)
Protocol: The functional activity of compounds of formula I was assayed by incubation with U2OS_HTR2C_β-Arrestin cells (DiscoverX, 93-0289C3) to induce beta-arrestin2 recruitment to the 5-HT2C receptor. The agonist-induced recruitment and proximity of the receptor and beta-arrestin2 leads to complementation and formation of active β-galactosidase. The enzyme complementation results in enzyme activity, which is measured following the termination of the agonist incubation using DiscoveRx's detection reagent, which contains a chemiluminescent substrate which produces a high intensity signal. Cells were plated and a medium-change to a 1% serum containing medium was performed 24 h later. The next day, test compounds were added and incubated for 1.5 h before addition of detection reagent.
The response produced was measured and compared with the response produced by 10 [mu]M 5-HT or the maximal effect induced by 5-HT (defined as 100%) to which it was expressed as a percentage response (relative efficacy). Dose response curves were constructed using Graphpad Prism (Graph Software Inc.) or using in house adapted software using a 4 parameter dose response model with variable slope (fit=(Bottom+(Top−Bottom)/(1+10^((Log EC50−x)*HillSlope))res=(y−fit)). Results are compiled in the table below.

T1 sequence (P28335 33-458): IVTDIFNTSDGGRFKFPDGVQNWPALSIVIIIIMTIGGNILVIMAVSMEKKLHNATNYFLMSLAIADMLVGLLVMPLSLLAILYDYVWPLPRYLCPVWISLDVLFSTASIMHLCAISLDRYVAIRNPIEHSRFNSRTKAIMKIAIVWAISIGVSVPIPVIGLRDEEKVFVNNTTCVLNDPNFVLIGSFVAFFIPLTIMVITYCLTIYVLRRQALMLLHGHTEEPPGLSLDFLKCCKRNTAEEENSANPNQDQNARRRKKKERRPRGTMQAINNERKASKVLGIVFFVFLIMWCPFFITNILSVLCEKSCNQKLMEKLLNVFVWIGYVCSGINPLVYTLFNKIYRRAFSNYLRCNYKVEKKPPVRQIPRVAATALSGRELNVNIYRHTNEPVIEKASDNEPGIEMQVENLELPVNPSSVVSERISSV
T1 sequence (P32121 whole entry partner, the tested form may be a part): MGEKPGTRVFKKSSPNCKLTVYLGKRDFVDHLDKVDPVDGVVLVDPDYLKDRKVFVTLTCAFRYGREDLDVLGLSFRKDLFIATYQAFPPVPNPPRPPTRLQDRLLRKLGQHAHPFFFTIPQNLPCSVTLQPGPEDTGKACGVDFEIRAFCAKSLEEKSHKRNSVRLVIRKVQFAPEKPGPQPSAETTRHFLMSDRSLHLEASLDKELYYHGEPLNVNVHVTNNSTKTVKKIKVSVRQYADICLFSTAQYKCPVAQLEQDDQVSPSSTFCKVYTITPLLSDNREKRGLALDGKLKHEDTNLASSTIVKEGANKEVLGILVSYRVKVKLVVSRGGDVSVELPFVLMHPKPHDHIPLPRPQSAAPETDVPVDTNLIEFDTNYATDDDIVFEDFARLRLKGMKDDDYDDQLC

| SMILES | EC50 | Emax |
| --- | --- | --- |
| c1cc2c3c(c1)N(C1COC1)CCN3CCNC2 [Example 35, 1-(Oxetan-3-yl)-2,3,5,6,7,8-hexahydro-1H-[1,4]diazepino[1,7,6-de]quinoxaline 2,2,2-trifluoroacetate] | 20 to 200 nM | 112% |
| c1cc2c3c(c1)N(CC1CC1)CCN3CCNC2 [Example 36, 1-(Cyclopropylmethyl)-2,3,5,6,7,8-hexahydro-1H-[1,4]diazepino[1,7,6-de]quinoxaline] | 200 to 1000 nM | 31% |
| c1cc2c3c(c1)N(CC1CCCC1)CCN3CCNC2 [Example 37, 1-(Cyclopentylmethyl)-2,3,5,6,7,8-hexahydro-1H-[1,4]diazepino[1,7,6-de]quinoxaline] | 200 to 1000 nM | 21% |
| c1cc2c3c(c1)N(C1CC1)CCN3CCNC2 [Example 40, 1-Cyclopropyl-2,3,5,6,7,8-hexahydro-1H-[1,4]diazepino[1,7,6-de]quinoxaline] | 20 to 200 nM | 131% |
| c1cc2c3c(c1)N(C1CCCC1)CCN3CCNC2 [Example 41, 1-Cyclopentyl-2,3,5,6,7,8-hexahydro-1H-[1,4]diazepino[1,7,6-de]quinoxaline] | 200 to 1000 nM | 75% |
| CC1CNCc2cccc3c2N1CCN3C1CC1 (stereo not shown) [Example 42, 1-Cyclopropyl-5-methyl-2,3,5,6,7,8-hexahydro-1H-[1,4]diazepino[1,7,6-de]quinoxaline] | < 20 nM | 163% |
| CC1CNCc2cccc3c2N1CCN3C1CCCC1 (stereo not shown) [Example 43, 1-Cyclopentyl-5-methyl-2,3,5,6,7,8-hexahydro-1H-[1,4]diazepino[1,7,6-de]quinoxaline] | 200 to 1000 nM | 59% |
| c1cc2c3c(c1)N1CCCCCC1CN3CCNC2 (stereo not shown) [Example 44, 5,6,7,9,9a,10,11,12,13,14-decahydro-4H-azepino[1,2-a][1,4]diazepino[1,7,6-de]quinoxaline] | 20 to 200 nM | 55% |
| CC1CNCc2cccc3c2N1CC1CCCN31 (stereo not shown) [Example 45, 7-Methyl-5,6,7,9,9^a,10,11,12-octahydro-4H-[1,4]diazepino[1,7,6-de]pyrrolo[1,2-a]quinoxaline] | 20 to 200 nM | 77% |
| CC1CNCc2ccc(F)c3c2N1CC1CCCN31 (stereo not shown) [Example 46, 1-Fluoro-7-methyl-5,6,7,9,9^a,10,11,12-octahydro-4H-[1,4]diazepino[1,7,6-de]pyrrolo[1,2-a]quinoxaline] | 200 to 1000 nM | 71% |
| c1cc2c3c(c1)C1(CCN3CCNC2)CC1 [Example 47, 1,2,3,4,6,7-Hexahydrospiro[[1,4]diazepino[6,7,1-ij]quinoline-8,1′-cyclopropane]] | 20 to 200 nM | 59% |
| CC1CNCc2cccc3c2N1CCC31CC1 (stereo not shown) [Example 48, 4-Methyl-1,2,3,4,6,7-hexahydrospiro[[1,4]diazepino[6,7,1-ij]quinoline-8,1′-cyclopropane]] | 20 to 200 nM | 105% |
| CC1(C)CCN2CCNCc3c(F)ccc1c32 [Example 49, 11-Fluoro-8,8-Dimethyl-2,3,4,6,7,8-hexahydro-1H-[1,4]diazepino[6,7,1-ij]quinoline] | 200 to 1000 nM | 78% |
| CC1CNCc2cccc3c2N1CCC3(C)C (stereo not shown) [Example 51, 4,8,8-Trimethyl-2,3,4,6,7,8-hexahydro-1H-[1,4]diazepino[6,7,1-ij]quinoline 2,2,2-trifluoroacetate] | 20 to 200 nM | 102% |
| CC1CNCc2cccc3c2N1CCC31CCC1 (stereo not shown) [Example 56, 4-Methyl-1,2,3,4,6,7-hexahydrospiro[[1,4]diazepino[6,7,1-ij]quinoline-8,1′-cyclobutane]] | < 20 nM | 124% |
| Fc1ccc2c3c1N1CCCC1CN3CCNC2 (stereo not shown) [Example 57, 1-Fluoro-5,6,7,9,9a,10,11,12-octahydro-4H-[1,4]diazepino[1,7,6-de]pyrrolo[1,2-a]quinoxaline, trifluoroacetic acid] | 200 to 1000 nM | 35% |
| Cc1ccc2c3c1N1CCCC1CN3CCNC2 (stereo not shown) [Example 59, 1-Methyl-5,6,7,9,9a,10,11,12-octahydro-4H-[1,4]diazepino[1,7,6-de]pyrrolo[1,2-a]quinoxaline, trifluoroacetic acid] | 20 to 200 nM | 51% |
| Cc1ccc2c3c1CNCCN3CCC21CCC1 [Example 66, 11-Methyl-1,2,3,4,6,7-hexahydrospiro[[1,4]diazepino[6,7,1-ij]quinoline-8,1′-cyclobutane], 2,2,2-trifluoroacetic acid] | 200 to 1000 nM | 53% |
| Cc1ccc2c3c1C1(CCC1)CCN3CCNC2 [Example 67, 9-Methyl-1,2,3,4,6,7-hexahydrospiro[[1,4]diazepino[6,7,1-ij]quinoline-8,1′-cyclobutane], trifluoroacetic acid] | < 20 nM | 116% |
| c1cc2c3c(c1)N1CC4CC4C1CN3CCNC2 (stereo not shown) [Example 68, 4,5,6,7,9,9a,9b,10,10a,11-Decahydrocyclopropa[3,4]pyrrolo[1,2-a][1,4]diazepino[1,7,6-de]quinoxaline] | 20 to 200 nM | 76% |
| CCN1CCN2CCNCc3cccc1c32 [Example 69, 1-Ethyl-2,3,5,6,7,8-hexahydro-1H-[1,4]diazepino[1,7,6-de]quinoxaline] | 200 to 1000 nM | 54% |
| CCCN1CCN2CCNCc3cccc1c32 [Example 70, 1-Propyl-2,3,5,6,7,8-hexahydro-1H-[1,4]diazepino[1,7,6-de]quinoxaline] | 20 to 200 nM | 63% |
| Cc1cc2c3c(c1)C1(CCC1)CCN3CCNC2 [Example 76, 10-Methyl-1,2,3,4,6,7-hexahydrospiro[[1,4]diazepino[6,7,1-ij]quinoline-8,1′-cyclobutane], trifluoroacetic acid] | < 20 nM | 98% |

Source: patent US10118926B2, “Tricyclic quinoline and quinoxaline derivatives” (AbbVie Deutschland GmbH & Co. KG, priority 2012, dated 2018)
